Results from patent US12358904B2, “Inhibitors of TYK2” (Atomwise Inc., priority 2023, dated 2025).

What was measured:
[1] = target: T1, TYK2-JH2 (Homo sapiens, UniProt P29597); experiment: TYK2-JH2 HTRF binding assay (ligand efficiency); settings: calculated from IC50 of the TYK-JH2 binding assay (Equation 1)
T1 construct: TYK JH2 enzyme mix (ChemPartnec CP20210818A-BV); purchased ChemPartner CP20210818A-BV
Summary of the method: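 His-tagged TYK2 JH2 (0.5 nM) preincubated 10 min at RT with compound (0.1–0.000005 μM) in 20 mM HEPES pH 7.5, 10 mM MgCl2, 0.01% Triton X-100, 1 mM DTT; then 35 nM tracer plus anti-6HIS Tb cryptate, 60 min RT. TR-FRET read (Ex340/Em495/520); IC50 converted to ligand efficiency.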

[2] = system: IL-12/pSTAT4; experiment: IL-12 induced pSTAT4 assay in NK-92 cells; format: cell-based; settings: Homo sapiens, NK92, IL-12 stimulation, read-out: Cellular potency (IL-12/pSTAT4)
Summary of the method: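 Overnight-starved NK-92 cells (20K/well) pre-incubated with compounds (1000 to 0.05 nM final) 30 min at 37 °C, then stimulated with IL-12 (10 ng/ml) for 30 min at 37 °C. Lysates assayed for pSTAT4 (Tyr693) by MSD electrochemiluminescence.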

[3] = system: GM-CSF/pSTAT5; experiment: GM-CSF induced pSTAT5 assay in CellSensor irf1-bla TF-1 cells; format: cell-based; settings: GM-CSF 1 ng/mL; for IC50: Homo sapiens, read-out: Cellular selectivity (GM-CSF induced pSTAT5)
Procedure: The CellSensor irf1-bla TF-1 cell line (LifeTechnologies, K1657) was cultured in RPMI 1640 Medium (Invitrogen 72400-047), 10% Fetal Bovine Serum (Invitrogen, 26400044), 1 mM Sodium pyruvate (Life Technologies, 11360039), 1% MEM NEAA (Life Technologies, 11140-035), 2 ng/ml of human recombinant GM-CSF (Fisher, PHC2015), 1% Penicillin/Streptomycin (Life Technologies, 15140-122) and 5 μg/ml of Blasticidin (ThermoFisher, A1113903).
The cell line was seeded in a T75 flask at 13×10^6 cells/50 mL in starvation medium (Opti-MEM™ I Reduced Serum Medium, no phenol red (Life Technologies, 11058-021), 1 mM Na pyruvate (Life Technologies, 11360039), 1% MEM NEAA (Life Technologies, 11140-035), and 1% Penicillin/Streptomycin (Life Technologies, 15140-122)) for 16 hours at 37° C. under 5% CO2 the day before the assay.
For the assay, CellSensor irf1-bla TF-1 cells were seeded at 30 000 cells/32 μL (starvation medium)/well in a 384-well plate.
Compounds were added on the cells in 4 μL (starvation medium)/well at 10× the final concentration. They were incubated for 30 minutes at 37° C.
Human recombinant carrier-free GM-CSF (ThermoFisher, ref PHC2015) was added to the wells in 4 μL (starvation medium)/well at 10×. The final concentration was 1 ng/mL. Control wells without GM-CSF treatment were added. Plates were incubated for 5 hours at 37° C.
6× LiveBlazer-FRET substrate (Invitrogen, K1085) was added to the wells at 8 μL/well. The substrate was prepared shortly before use by mixing 6 μL of solution A and 60 μL of solution B to 934 μL of solution C. Plates were incubated for 2.5 hours at room temperature in the dark. The plates were read on an Envision (Perkin Elmer) with an excitation at a wavelength of 409 nm and two wavelengths for the emission 520 nm and 450 nm. The ratio between the […] emission was used to calculate the IC50s.
The IC50 for the inhibition of pSTAT5 was calculated with the Xlfit software using the 4 Parameter Logistic Model or Sigmoidal Dose-Response Model (model 205).

[4] = system: IL-6/pSTAT3; experiment: IL-6 induced pSTAT3 assay in TF-1 cells; format: cell-based; settings: Homo sapiens, read-out: Cellular selectivity (IL-6/pSTAT3)
Procedure: The following example describes the IL-6 induced pSTAT3 assay used to determine the cellular selectivity (IL-6/pSTAT3) of the TYK2 inhibitors.
TF-1 (ATCC®, CRL-2003™) cells were cultured in RPMI 1640 Medium, with GlutaMAX™ Supplement, HEPES for Cell Culture (Life Technologies, 72400047), 10% Fetal Bovine Serum (Life Technologies, 26400044), 2 ng/mL human recombinant GM-CSF (Life Technologies, PHC2013), 1 mM Sodium pyruvate (Life Technologies, 11360039), 1% MEM NEAA (Life Technologies, 11140-035), 1% Penicillin/Streptomycin (Life Technologies, 15140-122).
TF-1 (70×10^6) cells were starved overnight in T01 50 flasks (Opti-MEM™ I Reduced Serum Medium, no phenol red (Life Technologies, 11058-021), 1 mM Na pyruvate (Life Technologies, 11360039), 1% MEM NEAA (Life Technologies, 11140-035), and 1% Penicillin/Streptomycin (Life Technologies, 15140-122)) then seeded into 96-well TPP plates (150 000 cell/well) and incubated with test compounds (Final Concentration [nM] 10000-0.05) for 30 minutes at 37° C. […] Stimulation was terminated by addition of lysis buffer (MSD K150SVD) and pSTAT3 detection was measured with Phospho-STAT3 (Tyr705) Kit MSD K150SVD)) according to manufacturer's instruction. Briefly, cell lysates were added to pre-blocked plates, sealed, and shake for 1 hour at room temperature. Plates were then washed and incubated with detection antibody for 1 hour at room temperature. After washing, Read Buffer was added, and plates were read on MSD instrument (Model 1300 MSD Quickplex SQ 120).

T1 sequence (P29597 589-875 limits assumed): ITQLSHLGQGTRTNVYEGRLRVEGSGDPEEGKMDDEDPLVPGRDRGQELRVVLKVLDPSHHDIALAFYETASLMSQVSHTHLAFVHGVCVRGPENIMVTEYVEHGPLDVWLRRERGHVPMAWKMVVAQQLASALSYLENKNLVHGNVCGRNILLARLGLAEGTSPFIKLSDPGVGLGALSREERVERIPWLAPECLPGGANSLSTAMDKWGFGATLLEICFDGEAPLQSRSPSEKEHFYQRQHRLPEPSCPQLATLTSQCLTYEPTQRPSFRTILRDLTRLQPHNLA

Row | SMILES | Ligand Efficiency [1] | IC50 [2] [µM] | IC50 [3] [µM] | IC50 [4] [µM] | Cellular selectivity (GM-CSF induced pSTAT5) [3]
1 | CC(c1ccc(Nc2cc(Nc3ncccc3S(C)(=O)=O)ncn2)nc1)N1CC2(CC(F)C2)C1 (stereo in doubt) [Compound 10, N^4-(5-((1R)-1-(6-fluoro-2-azaspiro[3.3]heptan-2-yl)ethyl) 87yridine-2-yl)-N^6-(3-(methylsulfonyl)87yridine-2-yl)pyrimidine-4,6-diamine] | ††† (†††: >0.39) | < 0.1 | > 10 | 4 to 10 | –
2 | Cc1cccc(Nc2cc(Nc3ccccc3NS(C)(=O)=O)ncn2)n1 [Compound 53, N-(2-(6-(6-methylpyridin-2-ylamino)pyrimidin-4-ylamino)phenyl) methanesulfonamide] | ††† (†††: >0.39) | 0.1 to 1 | 4 to 10 | < 4 | –
3 | CC(NC1CC(F)(F)C1)c1ccc(Nc2cc(Nc3ncccc3S(C)(=O)=O)ncn2)nc1 (centres unmarked) [Compound 35, N^4-(5-(1-(3,3-difluorocyclobutylamino)ethyl)122yridine-2-yl)-N^6-(3-(methylsulfonyl)122yridine-2-yl)pyrimidine-4,6-diamine] | ††† (†††: >0.39) | < 0.1 | > 10 | > 10 | –
4 | CC(C)(NC1COC1)c1ccc(Nc2cc(Nc3ccccc3S(C)(=O)=O)ncn2)nc1 [Compound 39, N^4-(2-(methylsulfonyl)phenyl)-N^6-(5-(2-(oxetan-3-ylamino)propan-2-yl)127yridine-2-yl)pyrimidine-4,6-diamine] | †† (††: 0.37-0.39) | < 0.1 | > 10 | > 10 | –
5 | Cc1ccnc(Nc2cc(Nc3ccccc3S(C)(=O)=O)ncn2)c1 [Compound 44, N^4-(4-methylpyridin-2-yl)-N^6-(2-(methylsulfonyl)phenyl) pyrimidine-4,6-diamine] | ††† (†††: >0.39) | < 0.1 | > 10 | > 10 | –
6 | Cc1cncc(Nc2cc(Nc3ccccc3C(N)=O)ncn2)n1 [Compound 49, 2-(6-(6-methylpyrazin-2-ylamino)pyrimidin-4-ylamino)benzamide] | ††† (†††: >0.39) | 0.1 to 1 | > 10 | < 4 | –
7 | CS(=O)(=O)c1ccccc1Nc1cc(Nc2ccc(CNC3CCOC3)cn2)ncn1 (centres unmarked) [Compound 28, N^4-(2-(methylsulfonyl)phenyl)-N^6-(5-((tetrahydrofuran-3-ylamino)methyl)110yridine-2-yl)pyrimidine-4,6-diamine] | †† (††: 0.37-0.39) | < 0.1 | > 10 | > 10 | –
8 | Cc1nc(Nc2cc(Nc3ncccc3S(C)(=O)=O)ncn2)ccc1[C@H](C)N1CC2(COC2)C1 [Compound 12, N^4-(5-(1-(2-oxa-6-azaspiro[3.3]heptan-6-yl)ethyl)-6-methylpyridin-2-yl)-N^6-(3-(methylsulfonyl)92yridine-2-yl)pyrimidine-4,6-diamine] | ††† (†††: >0.39) | < 0.1 | < 4 | < 4 | –
9 | CC1(Nc2ccc(Nc3cc(Nc4ncccc4S(C)(=O)=O)ncn3)nc2)COC1 [Compound 21, N^4-(5-((3-methyloxetan-3-yl)amino)102yridine-2-yl)-N^6-(3-(methylsulfonyl)102yridine-2-yl)pyrimidine-4,6-diamine] | ††† (†††: >0.39) | < 0.1 | > 10 | 4 to 10 | –
10 | Cc1cc(Nc2cc(Nc3ncccc3S(C)(=O)=O)ncn2)ncc1NC1(C)COC1 [Compound 23, N^4-(4-methyl-5-((3-methyloxetan-3-yl)amino)103yridine-2-yl)-N^6-(3-(methylsulfonyl)103yridine-2-yl)pyrimidine-4,6-diamine] | ††† (†††: >0.39) | < 0.1 | > 10 | > 10 | –
11 | C[C@@H](c1ccc(Nc2cc(Nc3ncccc3S(C)(=O)=O)ncn2)nc1C(F)(F)F)N1CC2(COC2)C1 [Compound 11, I-N^4-(5-(1-(2-oxa-6-azaspiro[3.3]heptan-6-yl)ethyl)-6-(trifluoromethyl)90yridine-2-yl)-N^6-(3-(methylsulfonyl)90yridine-2-yl)pyrimidine-4,6-diamine] | †† (††: 0.37-0.39) | < 0.1 | > 10 | < 4 | –
12 | C[C@H](c1ccc(Nc2cc(Nc3ncccc3S(C)(=O)=O)ncn2)nc1)N1CC2(COC2)C1 [Compound 17, I—N^4-(5-(1-(2-oxa-6-azaspiro[3.3]heptan-6-yl)ethyl) 73yridine-2-yl)-N^6-(3-(methylsulfonyl)73yridine-2-yl)pyrimidine-4,6-diamine] | †† (††: 0.37-0.39) | < 0.1 | – | > 10 | ††††
13 | CS(=O)(=O)c1cccnc1Nc1cc(Nc2ccc3c(n2)CCC[C@@H]3N2CC3(COC3)C2)ncn1 [Compound 5, I-N^4-(5-(2-oxa-6-azaspiro[3.3]heptan-6-yl)-5,6,7,8-tetrahydroquinolin-2-yl)-N^6-(3-(methylsulfonyl)81yridine-2-yl)pyrimidine-4,6-diamine] | †† (††: 0.37-0.39) | < 0.1 | > 10 | 4 to 10 | –
14 | CS(=O)(=O)c1ccccc1Nc1cc(Nc2ccc3c(n2)CCCC3N2CC3(CCOCC3)C2)ncn1 (centres unmarked) [Compound 27, N^4-(5-(7-oxa-2-azaspiro[3.5]nonan-2-yl)-5,6,7,8-tetrahydroquinolin-2-yl)-N^6-(2-(methylsulfonyl)phenyl)pyrimidine-4,6-diamine] | † (†: <0.37) | < 0.1 | > 10 | > 10 | –
15 | Cc1nc(Nc2cc(Nc3ncccc3S(C)(=O)=O)ncn2)ccc1NC1(C)COC1 [Compound 6, N^4-(6-methyl-5-((3-methyloxetan-3-yl)amino)82yridine-2-yl)-N^6-(3-(methylsulfonyl)82yridine-2-yl)pyrimidine-4,6-diamine] | ††† (†††: >0.39) | < 0.1 | > 10 | 4 to 10 | –
16 | Cc1cccc(Nc2cc(Nc3ccccc3C(N)=O)ncn2)n1 [Compound 46] | ††† (†††: >0.39) | < 0.1 | < 4 | < 4 | –
17 | Cc1cnnc(Nc2cc(Nc3ccccc3C(N)=O)ncn2)c1 [Compound 47, 2-((6-((5-methylpyridazin-3-yl)amino)pyrimidin-4-yl)amino) benzamide] | ††† (†††: >0.39) | < 0.1 | > 10 | < 4 | –
